Measurements reported in patent publication US20040106545A1, “Compounds and methods for modulating cell adhesion” (priority 1996, published 2004).
Where “and” joins values, the source holds several entries; their conditions need not be identical. Equal values may be shown once. Positions of bridges follow the written chain, without caps; N, C: chain ends. Residues, ends and D or L forms follow the SMILES beside them.

Columns and labels:
[1] = system: Madin Darby canine kidney (MDCK) cells; assay type: cell-based; settings: for EC50, decrease of electrical resistance across MDCK cell monolayer: 18 hours
Summary of the method: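 MDCK monolayers, grown in DMEM with 5% FCS from 300,000 cells per insert, exposed to modulating agent in medium (e.g., 0.5 mg/ml final for 24 hours). Transepithelial electrical resistance measured as an index of tight junction formation.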

[2] = Cytotoxicity, MTT assay, WI-38; assay type: cell-based; settings: human, WI-38 fibroblast cell line, read-out: WI-38 Cytotox (IC50)
Experimental: N—Ac-CHAVC-NH2 (SEQ ID NO:10) and the control peptide N—Ac-CHGVC-NH2 (SEQ ID NO:11) were evaluated for possible cytotoxic effects on human microvascular endothelial (HMVEC; Clonetics), human umbilical vein endothelial (HUVEC; ATCC #CRL-1730), IAFp2 (human fibroblast cell line; Institute Armand-Frapier, Montreal, Quebec), WI-38 (human fibroblast cell line; ATCC #CCL-75), MDA-MB231 (human breast cancer cell line; ATCC #HTB-26), and PC-3 (human prostate cancer cell line; ATCC #CRL-1435) cells utilizing the MTT assay (Plumb et al., Cancer Res. 49:4435-4440, 1989). Neither of the peptides was cytotoxic at concentrations up to and including 100 μM. Similarly, neither of the peptides was capable of inhibiting the proliferation of the above cell lines at concentrations up to 100 μM, as judged by ^3H-thymidine incorporation assays.

human skin = assay: Human skin permeability, Franz Cell apparatus
Experimental: Another cell adhesion assay involves evaluating the effect of a modulating agent on permeability of adherent epithelial and/or endothelial cell layers. For example, the effect on permeability of human skin may be evaluated. Such skin may be derived from a natural source or may be synthetic. Human abdominal skin for use in such assays may generally be obtained from humans at autopsy within 24 hours of death. Briefly, a cyclic peptide and a test marker (e.g., the fluorescent markers Oregon Green™ and Rhodamine Green™ Dextran) may be dissolved in a sterile buffer, and the ability of the marker to penetrate through the skin and into a receptor fluid may be measured using a Franz Cell apparatus (Franz, Curr. Prob. Dermatol. 7:58-68, 1978; Franz, J. Invest. Dermatol. 64:190-195, 1975). In general, a modulating agent that enhances the permeability of human skin results in a statistically significant increase in the amount of marker in the receptor compartment after 6-48 hours in the presence of 500 μg/mL modulating agent. This assay evaluates the effect of a modulating agent on E-cadherin mediated cell adhesion.
Abdominal skin from humans at autopsy within 24 hours of death was used in these assays. The effect of N—Ac-CHAVC-NH2 (SEQ ID NO:10) and N—Ac-CHGVC-NH2 (SEQ ID NO:11), used at a concentration of 500 μg/ml or 2.5 mg/ml, on the penetration of two fluorescent markers, Oregon Green 488 (charge −1, MW 386 daltons) and Rhodamine Green 3000 Dextran (no charge, MW 3000 daltons) through human skin was then evaluated utilizing a Franz Cell apparatus (Franz, Curr. Prob. Dermatol. 7:58-68, 1978; Franz, J. Invest. Dermatol. 64:190-195, 1975). The peptides and markers were dissolved in sterile phosphate buffer, pH 7.2, and phosphate buffer was used as the receptor fluid. 150 μl of solution containing 0.2 mg Oregon Green and 1.0 mg Rhodamine Green was used to evaluate 500 μg/ml peptide; 200 μl of solution containing 0.05 mg Oregon Green and 1.250 mg Rhodamine Green was used to evaluate 2.5 mg/ml peptide. The solution was placed on top of the epidermal side of the skin, and the penetration of the markers through the skin was assessed using a fluorescent spectrophotometric method (in a Perkin Elmer 650-105 Fluorescence Spectrophotometer, and comparing the reading to a standard curve) at 6, 12, 24, 36, and 48 hours after the start of the experiment. The fluorescent units were converted to a concentration unit of microgram/5 ml (volume of the receiver compartment) using a standard curve and regression analysis equations. The curve was linear for the concentrations tested for both markers (r^2=1 for OrG and 0.997 for RhG). For each peptide and marker combination, the experiment was performed in triplicate.

[3] = 500 μg/ml Peptide, t = 6 hours, Mean
[4] = 500 μg/ml Peptide, t = 6 hours, single replicates, listed as Sample#1
[5] = 500 μg/ml Peptide, t = 12 hours, Mean
[6] = 500 μg/ml Peptide, t = 12 hours, single replicates, listed as Sample#1
[7] = 500 μg/ml Peptide, t = 24 hours, Mean
[8] = 500 μg/ml Peptide, t = 24 hours, single replicates, listed as Sample#1
[9] = 500 μg/ml Peptide, t = 36 hours, Mean
[10] = 500 μg/ml Peptide, t = 36 hours, single replicates, listed as Sample#1
[11] = 500 μg/ml Peptide, t = 48 hours, Mean
[12] = 500 μg/ml Peptide, t = 48 hours, single replicates, listed as Sample#1
[13] = 2.5 mg/ml Peptide, t = 6 hours, Mean
[14] = 2.5 mg/ml Peptide, t = 6 hours, single replicates, listed as Sample#1
[15] = 2.5 mg/ml Peptide, t = 12 hours, Mean
[16] = 2.5 mg/ml Peptide, t = 12 hours, single replicates, listed as Sample#1
[17] = 2.5 mg/ml Peptide, t = 24 hours, Mean
[18] = 2.5 mg/ml Peptide, t = 24 hours, single replicates, listed as Sample#1
[19] = 2.5 mg/ml Peptide, t = 36 hours, Mean
[20] = 2.5 mg/ml Peptide, t = 36 hours, single replicates, listed as Sample#1
[21] = 2.5 mg/ml Peptide, t = 48 hours, Mean
[22] = 2.5 mg/ml Peptide, t = 48 hours, single replicates, listed as Sample#1

**Q.** Which “EC50, decrease of electrical resistance across MDCK cell monolayer” value [1] does the source give for `CC[C@H](C)[C@@H]1NC(=O)[C@H](CC(=O)O)NC(=O)[C@H](C(C)C)NC(=O)[C@H](C)NC(=O)[C@H](Cc2c[nH]cn2)NC(=O)[C@H](C)NC(=O)[C@@H](NC(C)=O)CSSC[C@@H](C(N)=O)NC1=O` (Ac-CAHAVDIC-NH2; disulfide 1-8) here?
**A.** INACTIVE

**Q.** Which results are given for `CC(=O)N[C@H]1CSSC[C@@H](C(N)=O)NC(=O)[C@H](CC(=O)O)NC(=O)[C@H](C(C)C)NC(=O)[C@H](C)NC(=O)[C@H](Cc2c[nH]cn2)NC(=O)[C@H](C)NC1=O` [N—Ac—CAHAVDC—NH2, N-Ac-Cys-Ala-His-Ala-Val-Asp-Cys-NH2] (Ac-CAHAVDC-NH2; disulfide 1-7)?
**A.** effect on electrical resistance across MDCK cells (in words) [1]: complete abrogation of E-cadherin specific activity; EC50, decrease of electrical resistance across MDCK cell monolayer [1]: INACTIVE

**Q.** What does the source list for `CC(=O)N[C@H]1CSSC[C@@H](C(N)=O)NC(=O)[C@H](C(C)C)NC(=O)[C@H](C)NC(=O)[C@H](Cc2c[nH]cn2)NC1=O` [N—Ac—CHAVC—NH2, N-Ac-Cys-His-Ala-Val-Cys-NH2]?
**A.** IC50 [2]: > 100 µM; penetration of Oregon Green through the skin, compared to control peptide (human skin; 500 μg/ml): slightly increased the penetration of Oregon Green through the skin; penetration of Rhodamine Green through the skin, compared to control peptide (human skin; 500 μg/ml): significantly increased; Percutaneous absorption concentration for Dextran Rhodamine Green 3000 (human skin; [3]): 0.8 mg/5ml; Percutaneous absorption concentration for Oregon Green 488 (human skin; [3]): 0.084 mg/5ml; Percutaneous absorption concentration for Dextran Rhodamine Green 3000 (human skin; [4]): 0.4 mg/5ml and 0.8 mg/5ml and 1.2 mg/5ml; Percutaneous absorption concentration for Oregon Green 488 (human skin; [4]): 0.028 mg/5ml and 0.167 mg/5ml and 0.058 mg/5ml; Percutaneous absorption concentration for Dextran Rhodamine Green 3000 (human skin; [5]): 3.52 mg/5ml; Percutaneous absorption concentration for Oregon Green 488 (human skin; [5]): 0.225 mg/5ml; Percutaneous absorption concentration for Dextran Rhodamine Green 3000 (human skin; [6]): 3.0 mg/5ml and 2.0 mg/5ml and 5.556 mg/5ml; Percutaneous absorption concentration for Oregon Green 488 (human skin; [6]): 0.096 mg/5ml and 0.322 mg/5ml and 0.352 mg/5ml; Percutaneous absorption concentration for Dextran Rhodamine Green 3000 (human skin; [7]): 11.15 mg/5ml; Percutaneous absorption concentration for Oregon Green 488 (human skin; [7]): 0.780 mg/5ml; Percutaneous absorption concentration for Dextran Rhodamine Green 3000 (human skin; [8]): 16.174 mg/5ml and 4.074 mg/5ml and 13.158 mg/5ml; Percutaneous absorption concentration for Oregon Green 488 (human skin; [8]): 0.470 mg/5ml and 1.096 mg/5ml and 0.773 mg/5ml; Percutaneous absorption concentration for Dextran Rhodamine Green 3000 (human skin; [9]): 14.72 mg/5ml; Percutaneous absorption concentration for Oregon Green 488 (human skin; [9]): 1.00 mg/5ml; Percutaneous absorption concentration for Dextran Rhodamine Green 3000 (human skin; [10]): 21.044 mg/5ml and 5.556 mg/5ml and 17.565 mg/5ml; Percutaneous absorption concentration for Oregon Green 488 (human skin; [10]): 0.544 mg/5ml and 1.56 mg/5ml and 0.902 mg/5ml; Percutaneous absorption concentration for Dextran Rhodamine Green 3000 (human skin; [11]): 20.02 mg/5ml; Percutaneous absorption concentration for Oregon Green 488 (human skin; [11]): 1.120 mg/5ml; Percutaneous absorption concentration for Dextran Rhodamine Green 3000 (human skin; [12]): 25.747 mg/5ml and 6.481 mg/5ml and 27.826 mg/5ml; Percutaneous absorption concentration for Oregon Green 488 (human skin; [12]): 0.665 mg/5ml and 1.725 mg/5ml and 0.971 mg/5ml; penetration of Oregon Green through the skin, compared to control peptide (human skin; 2.5 mg/ml): increased the penetration of Oregon Green through the skin; penetration of Rhodamine Green through the skin, compared to control peptide (human skin; 2.5 mg/ml): significantly increased; Percutaneous absorption concentration for Dextran Rhodamine Green 3000 (human skin; [13]): 12.66 mg/5ml; Percutaneous absorption concentration for Oregon Green 488 (human skin; [13]): 0.14 mg/5ml; Percutaneous absorption concentration for Dextran Rhodamine Green 3000 (human skin; [14]): 24.52 mg/5ml and 2.4 mg/5ml and 11.05 mg/5ml; Percutaneous absorption concentration for Oregon Green 488 (human skin; [14]): 0.14 mg/5ml and 0.11 mg/5ml and 0.16 mg/5ml; Percutaneous absorption concentration for Dextran Rhodamine Green 3000 (human skin; [15]): 31.47 mg/5ml; Percutaneous absorption concentration for Oregon Green 488 (human skin; [15]): 0.40 mg/5ml; Percutaneous absorption concentration for Dextran Rhodamine Green 3000 (human skin; [16]): 45.35 mg/5ml and 25.22 mg/5ml and 23.83 mg/5ml; Percutaneous absorption concentration for Oregon Green 488 (human skin; [16]): 0.44 mg/5ml and 0.32 mg/5ml and 0.45 mg/5ml; Percutaneous absorption concentration for Dextran Rhodamine Green 3000 (human skin; [17]): 48.78 mg/5ml; Percutaneous absorption concentration for Oregon Green 488 (human skin; [17]): 0.54 mg/5ml; Percutaneous absorption concentration for Dextran Rhodamine Green 3000 (human skin; [18]): 66.28 mg/5ml and 35.22 mg/5ml and 44.85 mg/5ml; Percutaneous absorption concentration for Oregon Green 488 (human skin; [18]): 0.67 mg/5ml and 0.33 mg/5ml and 0.63 mg/5ml; Percutaneous absorption concentration for Dextran Rhodamine Green 3000 (human skin; [19]): 71.28 mg/5ml; Percutaneous absorption concentration for Oregon Green 488 (human skin; [19]): 0.88 mg/5ml; Percutaneous absorption concentration for Dextran Rhodamine Green 3000 (human skin; [20]): 120.0 mg/5ml and 42.36 mg/5ml and 51.50 mg/5ml; Percutaneous absorption concentration for Oregon Green 488 (human skin; [20]): 0.76 mg/5ml and 0.88 mg/5ml and 0.99 mg/5ml; Percutaneous absorption concentration for Dextran Rhodamine Green 3000 (human skin; [21]): 133.56 mg/5ml; Percutaneous absorption concentration for Oregon Green 488 (human skin; [21]): 0.82 mg/5ml; Percutaneous absorption concentration for Dextran Rhodamine Green 3000 (human skin; [22]): 146.79 mg/5ml and 47.00 mg/5ml and 60.1 mg/5ml; Percutaneous absorption concentration for Oregon Green 488 (human skin; [22]): 0.83 mg/5ml and 0.56 mg/5ml and 1.06 mg/5ml
